This passage reports GI50 and IC50 results from ChEMBL document CHEMBL1152587, “Application of the McMurry coupling reaction in the synthesis of tri- and tetra-arylethylene analogues as potential cancer chemotherapeutic agents” (Bioorg Med Chem, 2009).

One test deals with DU-145. Kind of test: Anticancer activity against human DU145 cells after 48 hrs by SRB assay. Particulars: DU-145, 48 h. On the technique in general: In SRB staining, fixed cells bind dye roughly in proportion to their protein.
The nature of test [1]: Inhibition of bovine tubulin polymerization after 20 mins by turbidimetrically.

Broadly, the GI50 is the concentration giving 50% growth inhibition. Low values mean greater sensitivity of the cells, high ones lower sensitivity of the cells. As usually defined, the IC50 is the midpoint of a concentration-inhibition curve.

As for `COc1ccc(/C=C\c2cc(OC)c(OC)c(OC)c2)cc1O` [COMBRETASTATIN A4], the GI50 in the test with DU-145 is 2 nM.

As to `CC/C(=C(\c1ccccc1)c1ccc(OCCN(C)C)cc1)c1ccccc1` [TAMOXIFEN], in test [1], the IC50 was above 40000 nM.
